Reference: ChEMBL document CHEMBL5512664, “Emerging and Re-emerging Warheads for Targeted Covalent Inhibitors: An Update” (J Med Chem, 2024)

Legend:
[1] = biological target: T1, Carbonic anhydrase 2 (Homo sapiens, UniProt P00918); test: Binding affinity to carbonic anhydrase II (unknown origin) fragment assessed as rate of protein modification by measuring inactivation rate constant (Kinact)
[2] = biological target: T1, Carbonic anhydrase 2; test: Rate of protein modification at carbonic anhydrase II (unknown origin) fragment assessed as inhibition constant
[3] = Reactivity rate at cyclic sulfonamide assessed as rate constant by CSA sulfenic-acid model; format: physicochemical
[4] = GSH reactivity in PBS buffer at pH 7.4 assessed as half life; format: ADME
[5] = biological target: T2, Replicase polyprotein 1ab (Severe acute respiratory syndrome coronavirus 2, UniProt P0DTD1); test: Inhibition of SARS-CoV-2 papain-like protease (PLpro) using fluorogenic peptide substrate by fluorescent assay
[6] = biological target: Tyrosine-protein kinase BTK (Homo sapiens, UniProt Q06187); conditions: A-431, dose 1.0 µM
Chain of Tyrosine-protein kinase BTK (Q06187 whole entry): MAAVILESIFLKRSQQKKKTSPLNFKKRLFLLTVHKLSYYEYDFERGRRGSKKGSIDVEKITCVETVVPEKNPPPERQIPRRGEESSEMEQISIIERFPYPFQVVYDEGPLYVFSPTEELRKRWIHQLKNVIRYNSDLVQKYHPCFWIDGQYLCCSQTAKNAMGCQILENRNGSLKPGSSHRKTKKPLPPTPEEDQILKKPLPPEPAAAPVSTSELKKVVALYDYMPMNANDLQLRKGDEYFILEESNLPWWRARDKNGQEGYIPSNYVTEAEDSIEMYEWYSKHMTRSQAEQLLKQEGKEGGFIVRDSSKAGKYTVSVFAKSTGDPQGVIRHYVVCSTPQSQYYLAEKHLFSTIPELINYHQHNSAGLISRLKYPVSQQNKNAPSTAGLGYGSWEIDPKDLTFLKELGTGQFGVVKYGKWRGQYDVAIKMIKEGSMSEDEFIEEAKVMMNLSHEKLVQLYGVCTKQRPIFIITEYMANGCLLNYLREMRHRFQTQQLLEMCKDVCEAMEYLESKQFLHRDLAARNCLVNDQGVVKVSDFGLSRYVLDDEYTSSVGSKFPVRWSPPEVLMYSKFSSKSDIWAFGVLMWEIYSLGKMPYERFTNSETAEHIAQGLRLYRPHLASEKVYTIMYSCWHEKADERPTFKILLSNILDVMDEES

[7] = Reactivity of SuTEx assessed as aryl-LG modifications by measuring half life by HLPC analysis; format: physicochemical
[8] = biological target: E3 ubiquitin-protein ligase Mdm2 (Homo sapiens) (UniProt Q00987); test: Binding affinity to human HDM2 assessed as rate constant of covalent modification (Kinact)
Chain of E3 ubiquitin-protein ligase Mdm2 (Homo sapiens) (Q00987 whole entry, looked up): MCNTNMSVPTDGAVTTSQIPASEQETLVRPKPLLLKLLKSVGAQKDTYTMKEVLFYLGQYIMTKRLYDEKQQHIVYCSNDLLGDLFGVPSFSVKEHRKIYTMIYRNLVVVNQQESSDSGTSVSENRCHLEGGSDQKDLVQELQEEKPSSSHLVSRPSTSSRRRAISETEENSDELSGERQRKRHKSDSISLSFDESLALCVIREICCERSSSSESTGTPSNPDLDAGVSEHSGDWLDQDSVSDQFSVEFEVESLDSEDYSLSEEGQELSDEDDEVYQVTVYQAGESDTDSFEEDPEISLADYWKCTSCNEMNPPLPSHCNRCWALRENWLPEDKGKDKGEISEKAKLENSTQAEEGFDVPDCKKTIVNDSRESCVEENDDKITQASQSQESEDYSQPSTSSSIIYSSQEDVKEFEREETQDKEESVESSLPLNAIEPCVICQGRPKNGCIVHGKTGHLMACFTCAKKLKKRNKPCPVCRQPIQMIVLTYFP

[9] = biological target: E3 ubiquitin-protein ligase Mdm2 (Homo sapiens) (UniProt Q00987); test: Binding affinity to human HDM2 assessed as second-order rate constant (Kinact/Kd) ratio
[10] = species: Homo sapiens; test: Binding affinity to wild type Hsp90 (unknown origin) assessed as rate of modification half life
[11] = species: Homo sapiens; test: Inhibition of wild type Hsp90 (unknown origin) assessed as inactivation rate constant (Kinact)
[12] = biological target: T2, Replicase polyprotein 1ab; test: Binding affinity to SARS-CoV-2 cysteine protease-Mpro assessed as inhibition constant
[13] = biological target: Replicase polyprotein 1ab (Severe acute respiratory syndrome coronavirus 2) (UniProt P0DTD1); test: Binding affinity to SARS-CoV-2 cysteine protease-Mpro assessed as inactivation rate constant (Kinact)
[14] = biological target: T2, Replicase polyprotein 1ab; test: Inhibition of SARS-CoV-2 cysteine protease main protease
[15] = Cytotoxicity against African green monkey Vero E6 cells; format: toxicity, cell-based, Vero C1008; conditions: chlorocebus sabaeus
[16] = GSH reactivity in PBS buffer at pH 8 assessed as second-order reaction rate constants upto 200 uM by DTNB assay; format: ADME; conditions: pH 8, 200 µM
[17] = Cysteine-reactive in peptide assessed as half life using fluorogenic monochlorobimane/zinc complex by measuring fluorescence intensity; format: ADME; conditions: cysteine-containing peptide
[18] = biological target: NAD-dependent protein deacylase sirtuin-5, mitochondrial (Homo sapiens) (UniProt Q9NXA8); test: Inhibition of SIRT5 (unknown origin) assessed as inactivation rate constant (Kinact)
Chain of NAD-dependent protein deacylase sirtuin-5, mitochondrial (Homo sapiens) (Q9NXA8 37-310 limits assumed): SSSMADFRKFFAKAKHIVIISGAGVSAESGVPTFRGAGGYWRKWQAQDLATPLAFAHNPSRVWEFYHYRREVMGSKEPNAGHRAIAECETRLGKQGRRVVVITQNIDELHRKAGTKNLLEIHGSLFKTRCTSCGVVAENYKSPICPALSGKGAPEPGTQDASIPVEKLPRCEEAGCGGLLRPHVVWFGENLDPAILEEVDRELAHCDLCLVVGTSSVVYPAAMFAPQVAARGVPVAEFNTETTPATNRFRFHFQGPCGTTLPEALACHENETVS

[19] = biological target: NAD-dependent protein deacylase sirtuin-5, mitochondrial (Homo sapiens) (UniProt Q9NXA8); test: Inhibition of SIRT5 (unknown origin) assessed as reaction rate Kinact/Ki ratio
[20] = Toxicity in ip dosed mature male rabbit assessed as death; format: organism-based, Oryctolagus cuniculus; conditions: in vivo
[21] = Chemical stability of the compound in pH 7.4 buffer assessed as half life; format: physicochemical
[22] = biological target: T3, Chromobox protein homolog 8 (Homo sapiens) (UniProt Q9HC52); test: Binding affinity to CBX8 (unknown origin) assessed as rate constant of covalent modification (Kinact)
T3 sequence (whole entry): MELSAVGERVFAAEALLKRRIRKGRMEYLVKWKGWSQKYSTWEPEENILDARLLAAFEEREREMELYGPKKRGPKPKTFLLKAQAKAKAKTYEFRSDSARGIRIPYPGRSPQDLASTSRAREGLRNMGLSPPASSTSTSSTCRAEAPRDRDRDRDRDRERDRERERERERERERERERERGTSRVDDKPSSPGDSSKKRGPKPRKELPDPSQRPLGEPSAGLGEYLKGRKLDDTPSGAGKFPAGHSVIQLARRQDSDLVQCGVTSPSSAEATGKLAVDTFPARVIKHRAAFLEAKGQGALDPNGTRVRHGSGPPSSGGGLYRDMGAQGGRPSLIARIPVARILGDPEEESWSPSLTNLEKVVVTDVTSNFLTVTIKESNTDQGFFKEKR

[23] = biological target: Bromodomain-containing protein 4 (Homo sapiens) (UniProt O60885); test: Binding affinity to his-tagged recombinant BRD4 BD1 (unknown origin) assessed as increase in thermal stability by measuring change in melting temperature after 4 hrs by cellular thermal shift assay
[24] = Reactivity of SuTEx assessed as aryl-AG modifications by measuring half life by HLPC analysis; format: physicochemical
[25] = biological target: T4, Tyrosine-protein kinase ABL1 (Homo sapiens, UniProt P00519); test: Inhibition of wild type N-terminal His tagged ABL kinase (unknown origin) using fluorescence-labelled substrate by off-chip mobility shift assay
T4 sequence (P00519 whole entry): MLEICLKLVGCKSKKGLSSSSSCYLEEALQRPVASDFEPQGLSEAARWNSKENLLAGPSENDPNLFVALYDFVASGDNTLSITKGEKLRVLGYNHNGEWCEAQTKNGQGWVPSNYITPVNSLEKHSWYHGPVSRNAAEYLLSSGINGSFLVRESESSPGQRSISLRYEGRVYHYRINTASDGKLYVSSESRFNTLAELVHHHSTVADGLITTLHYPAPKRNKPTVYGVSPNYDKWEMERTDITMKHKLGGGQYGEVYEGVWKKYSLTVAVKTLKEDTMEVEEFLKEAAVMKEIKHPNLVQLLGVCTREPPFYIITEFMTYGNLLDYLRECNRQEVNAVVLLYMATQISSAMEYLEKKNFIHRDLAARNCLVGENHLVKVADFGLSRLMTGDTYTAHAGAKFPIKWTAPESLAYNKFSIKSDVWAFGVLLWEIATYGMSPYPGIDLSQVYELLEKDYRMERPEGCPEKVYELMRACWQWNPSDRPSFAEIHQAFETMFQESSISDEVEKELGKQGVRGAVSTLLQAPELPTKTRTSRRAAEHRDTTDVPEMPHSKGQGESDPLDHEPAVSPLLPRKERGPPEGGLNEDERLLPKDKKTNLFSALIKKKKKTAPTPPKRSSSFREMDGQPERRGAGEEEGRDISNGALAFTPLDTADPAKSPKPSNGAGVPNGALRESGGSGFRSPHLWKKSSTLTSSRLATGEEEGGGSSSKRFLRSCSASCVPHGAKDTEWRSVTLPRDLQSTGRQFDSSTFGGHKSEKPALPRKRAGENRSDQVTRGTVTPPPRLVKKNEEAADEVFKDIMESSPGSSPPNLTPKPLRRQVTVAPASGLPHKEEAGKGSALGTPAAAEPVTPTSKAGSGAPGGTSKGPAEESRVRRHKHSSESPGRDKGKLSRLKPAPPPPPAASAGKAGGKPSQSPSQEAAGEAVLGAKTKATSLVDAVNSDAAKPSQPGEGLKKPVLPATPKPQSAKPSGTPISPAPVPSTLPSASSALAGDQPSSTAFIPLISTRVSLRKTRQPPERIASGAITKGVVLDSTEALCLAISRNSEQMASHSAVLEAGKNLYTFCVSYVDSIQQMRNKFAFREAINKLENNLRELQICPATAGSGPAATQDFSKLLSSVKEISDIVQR

[26] = biological target: T4, Tyrosine-protein kinase ABL1; test: Inhibition of recombinant ABL kinase (unknown origin) assessed as inactivation rate constant (Kinact)
[27] = biological target: T4, Tyrosine-protein kinase ABL1; test: Inhibition of recombinant ABL kinase (unknown origin) assessed as inhibition constant

NS(=O)(=O)c1ccc(CCNC(=O)Cc2ccc(S(=O)(=O)F)cc2)cc1
Kinact [1]: 0.36 10^-5/s | Ki [2]: < 5 µM

NS(=O)(=O)c1cccc(CNC(=O)c2ccc(S(=O)(=O)F)cc2)c1
Kinact [1]: 12 10^-5/s | Ki [2]: < 5 µM

C#CCCCC1CCC(=O)CC1=O (stereo not drawn)
K [3]: 10 M⁻¹ s⁻¹

C=CCSc1nc2sc3c(c2c(=O)n1CC)CCc1ccccc1-3
half-life [4]: 0.683 h | IC50 [5]: 0.8 µM

Nc1ncnc2c1ncn2[C@@H]1O[C@H](CN(CC[C@H](N)C(=O)O)S(=O)(=O)c2ccc(Cl)c([N+](=O)[O-])c2)[C@@H](O)[C@H]1O
half-life [4]: < 0.0333 h

C#Cc1cccc(Oc2ccc(-c3nn(CCc4ccccc4N(C)C(=O)C45CC4C5)c4ncnc(N)c34)cc2)c1 (stereo not drawn)
half-life [4]: 32.7 h | V0 [6]: 9.7 10^-5/s

O=S(=O)(c1ccc(F)cc1)n1cnc(-c2ccccc2)n1
half-life [7]: 6.5 min | Kinact [8]: 4.8 10^-4/s | Ratio [9]: 8.4 10^2/M/s

Nc1ncnc2c1nc(Sc1cc3c(cc1I)OCO3)n2C[C@@H]1CCCN(Cc2cccc(S(=O)(=O)F)c2)C1
T1/2 [10]: 3.33 h | Kinact [11]: 6.67 10^-5/s

O=C(NCCc1cccc(F)c1)[C@@H](c1cncnc1)N(C(=O)[C@H](F)Cl)c1ccc(S(F)(F)(F)(F)F)cc1
Ki [12]: 1.34 µM | Kinact [13]: 5.6 10^-3/s

C[C@@H](NC(=O)[C@H](c1cccnc1)N(C(=O)C(Br)(Br)Br)c1ccc(-c2ccccc2)cc1)c1ccccc1
IC50 [14]: 0.08 µM | CC50 [15]: 5.48 µM

CN(C)S(=O)(=O)OCC(=O)NCc1ccccc1
K [16]: 0.012 M⁻¹ s⁻¹

NC(=O)C(F)Cl (stereo not drawn)
half-life [4]: 17 h | half-life [17]: 4.4 h

C#CCNC(=O)c1ccc(S(=O)(=O)N[C@@H](CCCCNC(=O)c2cncc(OS(=O)(=O)F)c2)C(=O)N[C@@H](CCCNC(=N)N)C(=O)NC2CCC2)cc1
Kinact [18]: 2.83 10^-4/s | Ratio [19]: 2.9 M⁻¹ s⁻¹

O=S(=O)(c1ccc(F)cc1)n1cnc(-c2ccc(Br)cc2)n1
half-life [7]: 6.6 min

C#CCCC(=O)C(SC[C@H](NC(=O)OCc1ccccc1)C(=O)N[C@H](C(=O)OC)C(C)C)[P+](c1ccccc1)(c1ccccc1)c1ccccc1 (stereo partly drawn)
K [3]: 15000 M⁻¹ s⁻¹

CS(=O)(=O)OCC(=O)NCc1ccccc1
K [16]: 0.134 M⁻¹ s⁻¹

O=C(CCl)NCc1ccccc1
K [16]: 0.08 M⁻¹ s⁻¹

O=C(NCCCCCCCCNC(=O)C(Cl)Cl)C(Cl)Cl
LD50 [20]: 10000 mg/kg

NS(=O)(=O)c1cccc(CNC(=O)Cc2ccc(S(=O)(=O)F)cc2)c1
Kinact [1]: 0.73 10^-5/s | Ki [2]: < 5 µM

NC(=O)C(Br)Br
half-life [4]: < 1.67 h

CC#CC1=Nc2ccccc2C(C)(C)O1
half-life [4]: 1.37 h | half-life [21]: > 167 h

CC(NS(=O)(=O)c1cccc(S(=O)(=O)F)c1)c1cccc(S(N)(=O)=O)c1 (stereo not drawn)
Kinact [1]: 3.9 10^-5/s | Ki [2]: 12 µM

O=S(=O)(c1ccccc1)C12CC1C2 (stereo not drawn)
half-life [4]: 11.8 h

CC(=O)N(C)c1ccccc1
half-life [4]: 0.333 h

C#CCOCCOCCOc1cccc(N2CCN(C(=O)C(F)F)CC2)c1
half-life [4]: 129 h

CC(NC(=O)c1cccc(S(=O)(=O)F)c1)c1cccc(S(N)(=O)=O)c1 (stereo not drawn)
Kinact [1]: 0.24 10^-5/s | Ki [2]: 53 µM

O=S(=O)(c1ccc(F)cc1)n1cnc(-c2ccc(C(F)(F)F)cc2)n1
half-life [7]: 3.2 min | K [22]: 2.9 10^-3/M/s

Cc1ccc(S(=O)(=O)OCC(=O)NCc2ccccc2)cc1
K [16]: 0.161 M⁻¹ s⁻¹

Cc1noc(C)c1-c1ccc(=O)n(Cc2ccc(C3CO3)cc2)c1 (stereo not drawn)
ΔTm [23]: 22 °C

O=C(COS(=O)(=O)Nc1ccccc1)NCc1ccccc1
K [16]: 0.009 M⁻¹ s⁻¹

COc1ccc(-c2ncn(S(=O)(=O)c3ccc(OC)cc3)n2)cc1
half-life [24]: 3.04 h

C#CCOCCOCCOc1cccc(N2CCN(C(=O)CF)CC2)c1
half-life [4]: > 167 h

C#CCN(C)C(=O)c1cncc(-c2cnc3[nH]cc(-c4cc(C=O)c(C#C)cc4OC)c3c2)c1
IC50 [25]: 0.0028 µM | Kinact [26]: 5.54 10^-3/s | Ki [27]: 3.2 µM

CC(NS(=O)(=O)c1ccc(S(=O)(=O)F)cc1)c1cccc(S(N)(=O)=O)c1 (stereo not drawn)
Kinact [1]: 1.7 10^-5/s | Ki [2]: < 5 µM
